Measured values: US10772931B2, “Collagen binding synthetic peptidoglycans for treatment of endothelial dysfunction” (Purdue Research Foundation, priority 2014, dated 2020)

How the values were obtained:
[1] = test system: Human aortic endothelial cells (EC); assay: Metabolic activity (CellTiter 96 AQueous One, MTS), EC monolayers; format: cell-based; conditions: 10 ng/mL PDGF alone, 24 hrs
Description: (§1) Human aortic endothelial cells (EC, Invitrogen) were cultured in Media 200 (M200, Invitrogen), supplemented with (all from Invitrogen) 2% fetal bovine serum (FBS), 1 μg/mL hydrocortisone, 10 ng/mL epidermal growth factor (EGF), 3 ng/mL basic fibroblast growth factor (FGF), and 10 μg/mL heparin. Unless otherwise noted, cells were initially seeded at 3×10^5 cells/cm^2 in Ibidi angiogenesis μ-slide (Ibidi) and allowed to proliferate for 24 hrs to establish a confluent monolayer, prior to the application of treatments to the EC cultures. Cells were used between passage numbers 3 and 8 for all assays and maintained at 37° C. with 5% CO2.
Cultures were incubated in the presence of 0, 0.01, 0.1, 1, or 10 μM DS-SILY20, with and without 10 ng/mL PDGF, for 24 hrs. The metabolic activity of the cells was determined using the CellTiter 96 AQueous One Solution Cell Proliferation Assay (Promega). Briefly, media was mixed with 3-(4,5-dimethylthiazol-2-yl)-5-(3-carboxymethoxyphenyl)-2-(4-sulfophenyl)-2H-tetrazolium, inner salt (MTS) and cultures were re-incubated for 2 hrs at 37° C. with 5% CO2. The media containing MTS was then transferred into a 96-well plate and absorbance at 490 nm was measured.

[2] = test system: hyperplastic EC-SMC co-cultures; assay: Metabolic activity (MTS), hyperplastic EC-SMC co-cultures; format: cell-based, human; conditions: PDGF stimulation alone
Description: (§2) To better mimic the physiology of the vessel wall and further investigate the effects of therapeutics on ECs in a biologically relevant manner, two EC-SMC co-culture models, designed to mimic either healthy or diseased vasculature, were established. ECs were cultured as stated previously. Human coronary artery smooth muscle cells (SMC, Invitrogen) were cultured in Media 231 (M231, Invitrogen), supplemented with (all from Invitrogen) 4.9% FBS, 2 ng/mL FGF, […], 5 ng/mL heparin, 5 μg/mL insulin, and 0.2 μg/mL bovine serum albumin. SMCs were seeded at 5×10^4 cells/cm^2 in Ibidi angiogenesis μ-slide and allowed to proliferate for 24 hrs to allow the formation of multilayered cell constructs. Media was removed and cultures were treated either with proliferative media, as described above, or contractile media to induce a quiescent phenotype, for 24 hrs. […]
(§3) Cultures were incubated in the presence of 0, 0.01, 0.1, 1, or 10 μM DS-SILY20, with and without 10 ng/mL PDGF, for 24 hrs. The metabolic activity of the cells was determined using the CellTiter 96 AQueous One Solution Cell Proliferation Assay (Promega). […] The media containing MTS was then transferred into a 96-well plate and absorbance at 490 nm was measured.

[3] = test system: quiescent EC-SMC co-cultures; assay: Metabolic activity (MTS), quiescent EC-SMC co-cultures; format: cell-based, human; conditions: PDGF stimulation alone
Description: as §2, §3

PDGF receptor β (PDGFRβ) = assay: PDGFRβ phosphorylation in ECs (sandwich ELISA); format: cell-based, human; conditions: EC monolayers, PDGF treatment alone (10 ng/mL)
Description: Cells were incubated in the presence of DS-SILY20 with and without 10 ng/mL PDGF for 60 mins prior to washing with ice cold TBS and […] solubilized in lysis buffer (1% NP-40 Alternative, 20 mM Tris, 137 mM NaCl, 10% glycerol, 2 mM EDTA, 1 mM activated sodium orthovanadate, 10 μg/mL Aprotinin, and 10 μg/mL Leupeptin). Lysates were processed at 4° C. for 30 mins prior to centrifugation for 5 mins at 2000×g to remove membrane components. Sandwich ELISAs (all from R&D systems) were utilized to measure total PDGF receptor β (PDGFRβ) and total phosphotyrosine PDGFRβ. All assays were performed following the manufacturer's protocol.

[4] = test system: Human aortic endothelial cells (EC); assay: EC proliferation (Hoescht 33342 nuclei stain); format: cell-based; conditions: PDGF alone (10 ng/mL), 24 hrs
Description: as §1
Cultures were incubated in the presence of DS-SILY20 with or without 10 ng/mL PDGF for 24 hrs. Cells were nuclei stained with Hoescht 33342 and […] to determine the effect of DS-SILY20 and PDGF on cell proliferation.

[5] = test system: Human aortic endothelial cells (EC); assay: EC migration on collagen (Oris Cell Migration Kit); format: cell-based; conditions: PDGF stimulation alone (10 ng/mL), 48 hrs
Description: Fibrillar collagen was coated in wells of 96-well Oris Cell Migration Kit (Platypus Technologies, Madison). Stoppers were inserted into the plate to block an inner circular portion of the well. ECs were seeded at 5×10^3 cells/well and grown to confluence in the outer portion of the well. After 48 hrs, the stoppers in the wells were removed and ECs were stained with cell tracker green (Invitrogen). To determine the effects of treatments on migration alone, ECs were dosed with 25 μg/mL mitomycin C (Sigma) for 30 mins to inhibit proliferation. Various DS-SILY20 concentrations, solubilized in M200+LSGS, were then incubated on the exposed collagen surface in the inner portion of the well for 15 min at 37° C. Unbound DS-SILY20 was rinsed from the surface and cell media, with or without 10 ng/mL PDGF, was returned to the wells. ECs were allowed to migrate from the outer to the inner portion of the wells for 48 hrs. At 48 hrs, fluorescence measurements of the center of each well were measured using a mask provided with the migration kit such that only the treated inner circular portion of the well was measured.

interleukin-6 (IL-6) [6] = assay: IL-6 expression in EC monolayers (Pro-Inflammatory I kit); format: cell-based, human; conditions: 10 ng/mL PDGF alone, 24 hrs
Description: as §1
Cells were incubated in the presence of DS-SILY20 with or without 10 ng/mL PDGF for 24 hrs. Media was removed from the cultures and a Pro-Inflammatory I kit (Meso Scale Discovery) was used to analyze cytokine production from EC monolayers, hyperplastic co-cultures, and quiescent co-cultures according to manufacturer's instructions. Briefly, plates were warmed to room temperature and incubated with 25 μL of samples and standards for 2 hrs at room temperature with vigorous shaking. […] After washing three times with PBS with 0.05% Tween-20, 2× read buffer was added to the plate and imaged using a Sector Imager 2400A (Meso Scale Discovery). […] Data were analyzed using the MSD Discovery Workbench Software.

E-selectin [7] = assay: E-selectin production in EC monolayers (Vascular Injury Marker I kit); format: cell-based, human; conditions: 10 ng/mL PDGF alone
Description: as §1
(§4) Following treatment with DS-SILY20 with or without 10 ng/mL PDGF for 24 hrs, cells were washed twice with ice cold PBS and solubilized in lysis buffer (9 M urea, 4% CHAPS, and phosphatase inhibitor cocktail-1 in Millipore water). Lysates were processed at 4° C. for 30 mins prior to centrifugation for 20 mins at 18,000×g to remove membrane components. A BCA assay protein kit (Pierce) was used to quantify total protein. […] After washing three times with PBS with 0.05% Tween-20, 2× Read buffer was added to the plate and imaged using a Sector Imager 2400A. Data were analyzed using the MSD Discovery Workbench Software.

P-selectin [8] = assay: P-selectin production in EC monolayers (Vascular Injury Marker I kit); format: cell-based, human; conditions: PDGF alone
Description: as §1, §4

thrombomodulin [9] = assay: Thrombomodulin production in EC monolayers (Vascular Injury Marker I kit); format: cell-based, human; conditions: PDGF alone
Description: as §1, §4

ERK-1/2 = ERK-1/2 phosphorylation in EC monolayers; format: cell-based, human; conditions: 10 ng/mL PDGF alone, 10 mins
Description: (§5) The phosphorylation of mitogen-activated protein kinases (MAPK), including extracellular signal-related kinase (ERK) and p38 MAPK (p38), was examined. Cells were incubated in the presence of DS-SILY20 with or without 10 ng/mL PDGF for […] prior to washing with ice cold tris buffered saline (TBS) and solubilized in lysis buffer (150 mM NaCl, 20 mM Tris, 1 mM EDTA, 1 mM EGTA, 1% Triton-X-100, plus protease inhibitors and phosphatase inhibitors). Lysates were processed at 4° C. for 30 mins prior to centrifugation for 20 mins at 18,000×g to remove membrane components. Phospho-p38 (Thr180/Tyr182) and phospho-ERK-1/2 (Thr/Tyr: 202/204; 185/187) levels were evaluated using the MAP Kinase Whole Cell Lysate kit (Meso Scale Discovery); Total p38 and total ERK-1/2 were determined via MAP Kinase (Total Protein) Whole Cell Lysate Kit (Meso Scale Discovery), according to manufacturer's instructions. Briefly, plates were warmed to room temperature and incubated with 25 μL of samples for 3 hrs at room temperature with vigorous shaking. Following gentle rinsing of the wells, the detection antibody was then added and incubated for 1 hr at room temperature with vigorous shaking. After washing three times with TBS, 2× read buffer was added to the plate and imaged using a Sector Imager 2400A. Data were analyzed using the MSD Discovery Workbench Software. […]

p38 MAPK (p38) = assay: p38 MAPK phosphorylation in EC monolayers; format: cell-based, human; conditions: PDGF alone
Description: as §5

interferon-γ (IFN-γ) [10] = assay: IFN-γ production, hyperplastic co-cultures; format: cell-based, human; conditions: 10 ng/mL PDGF alone
Description: as §2
(§6) Cells were incubated in the presence of DS-SILY20 with or without 10 ng/mL PDGF for 24 hrs. […] After washing three times with PBS with 0.05% Tween-20, 2× read buffer was added to the plate and imaged using a Sector Imager 2400A (Meso Scale Discovery). […] Data were analyzed using the MSD Discovery Workbench Software.

interleukin-6 (IL-6) [11] = assay: IL-6 production, hyperplastic co-cultures; format: cell-based, human; conditions: 10 ng/mL PDGF alone
Description: as §2, §6

[12] = test system: tumor necrosis factor-α (TNF-α); assay: TNF-α production, hyperplastic co-cultures; format: cell-based, human; conditions: 10 ng/mL PDGF alone
Description: as §2, §6

interferon-γ (IFN-γ) [13] = assay: IFN-γ production, quiescent co-cultures; format: cell-based, human; conditions: 10 ng/mL PDGF alone
Description: as §2, §6

[14] = test system: tumor necrosis factor-α (TNF-α); assay: TNF-α production, quiescent co-cultures; format: cell-based, human; conditions: 10 ng/mL PDGF alone
Description: as §2, §6

E-selectin [15] = assay: E-selectin production, hyperplastic co-cultures; format: cell-based, human; conditions: PDGF alone
Description: as §2
as §4, with “Lysates were processed at 4° C. for 30 mins prior to centrifugation for 20 mins at 18,000×g to remove membrane components.” left out

P-selectin [16] = assay: P-selectin production, hyperplastic co-cultures; format: cell-based, human; conditions: PDGF alone
Description: as §2
as §4, with “Lysates were processed at 4° C. for 30 mins prior to centrifugation for 20 mins at 18,000×g to remove membrane components.” left out

thrombomodulin [17] = assay: Thrombomodulin production, hyperplastic co-cultures; format: cell-based, human; conditions: PDGF alone
Description: as §2
as §4, with “Lysates were processed at 4° C. for 30 mins prior to centrifugation for 20 mins at 18,000×g to remove membrane components.” left out

E-selectin [18] = assay: E-selectin production, quiescent co-cultures; format: cell-based, human; conditions: PDGF alone
Description: as §2
as §4, with “Lysates were processed at 4° C. for 30 mins prior to centrifugation for 20 mins at 18,000×g to remove membrane components.” left out

P-selectin [19] = assay: P-selectin production, quiescent co-cultures; format: cell-based, human; conditions: PDGF alone
Description: as §2
as §4, with “Lysates were processed at 4° C. for 30 mins prior to centrifugation for 20 mins at 18,000×g to remove membrane components.” left out

thrombomodulin [20] = assay: Thrombomodulin production, quiescent co-cultures; format: cell-based, human; conditions: PDGF alone
Description: as §2
as §4, with “Lysates were processed at 4° C. for 30 mins prior to centrifugation for 20 mins at 18,000×g to remove membrane components.” left out

Substance: platelet-derived growth factor [PDGF]
- metabolic activity of ECs [1]: did not influence
- metabolic activity [2]: not impacted
- metabolic activity [3]: not impacted
- phospho-PDGFRβ levels (PDGF receptor β (PDGFRβ)): significantly increased
- EC proliferation [4]: significantly increased
- enhancement of EC migration [5]: 40.3%
- IL-6 production vs no treatment controls (interleukin-6 (IL-6) [6]): did not alter
- E-selectin production vs no treatment controls (E-selectin [7]): did not alter
- P-selectin expression (P-selectin [8]): induced
- thrombomodulin expression (thrombomodulin [9]): induced
- ERK-1/2 phosphorylation vs no treatment controls (ERK-1/2): increased
- phosphorylation of p38 (p38 MAPK (p38)): did not alter
- production of IFN-γ vs no treatment controls (interferon-γ (IFN-γ) [10]): significantly increased
- production of IL-6 vs no treatment controls (interleukin-6 (IL-6) [11]): significantly increased
- production of TNF-α vs no treatment controls [12]: significantly increased
- production of IFN-γ vs no treatment controls (interferon-γ (IFN-γ) [13]): significantly increased
- production of TNF-α vs no treatment controls [14]: significantly increased
- E-selectin expression (E-selectin [15]): did not stimulate
- P-selectin production (P-selectin [16]): significantly increased
- thrombomodulin production (thrombomodulin [17]): significantly increased
- E-selectin expression (E-selectin [18]): did not stimulate
- P-selectin production (P-selectin [19]): significantly increased
- thrombomodulin production (thrombomodulin [20]): significantly increased
